Laboratory results: US10392369B2, “N-[(pyrimidinyloxy)propanyl]benzamides” (Boehringer Ingelheim International GmbH, priority 2016, dated 2019)
Where two headings read alike, the source gives them in different places.

Experiments:
[1] = molecular target: T1, human orexin 2 receptor (Homo sapiens, UniProt O43614); assay: Assay B: OX2R IP1 (in vitro OX2R potency); format: cell-based; conditions: Table 3; 0.5 nM Orexin A
T1 construct: stably expressing the full-length human orexin 2 receptor; expressed in transfected cells; host or cells: CHO-K1 (CHO-K1/hOx2), co-expressing the aequorin photoprotein
T1 sequence (O43614 1-444): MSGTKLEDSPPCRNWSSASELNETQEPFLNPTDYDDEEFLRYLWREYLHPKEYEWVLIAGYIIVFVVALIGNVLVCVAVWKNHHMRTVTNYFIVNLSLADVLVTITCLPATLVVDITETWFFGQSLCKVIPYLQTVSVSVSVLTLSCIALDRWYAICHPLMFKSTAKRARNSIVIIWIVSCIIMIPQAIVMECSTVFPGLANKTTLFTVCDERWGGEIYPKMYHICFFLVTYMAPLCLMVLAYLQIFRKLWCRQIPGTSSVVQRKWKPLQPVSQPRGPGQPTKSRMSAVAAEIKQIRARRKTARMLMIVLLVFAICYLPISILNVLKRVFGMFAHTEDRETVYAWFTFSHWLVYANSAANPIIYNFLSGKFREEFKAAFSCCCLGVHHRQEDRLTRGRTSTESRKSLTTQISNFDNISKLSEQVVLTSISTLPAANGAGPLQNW
Description: Activation of the orexin receptors expressed in cell lines results in an increase in intracellular IP3 concentration. IP1, a downstream metabolite of IP3, accumulates in cells following receptor activation and is stable in the presence of LiCl. Using Homogeneous Time-Resolved Fluorescence technology with Lumi4-Tb cryptate (commercially available from Cisbio Bioassay.) and a suitable fluorescence plate reader. […] Chem. Genomics 2009, 3, 22-32. This technique is used to characterize pharmacological modification of the orexin receptors.
B. In Vitro Testing of OX2R Potency: OX2R IP1
(§1) IP1 measurements are performed in CHO-K1 cells stably expressing the full-length human orexin 2 receptor and the aequorin photoprotein. Cells are cultivated in Ham's nutrient mixture F12 medium with 10% fetal calf serum, in a 37° C., 95% humidity and 5% CO2 incubator. The CHO-K1/hOx2 cell mass is expanded to larger cell numbers. The cells are obtained as frozen cells in cryo-vials and stored until use at −150° C. The viability of the cells after thawing is >90%. In preparation for the assay, 24 hours before the assay, the cells are thawed at 37° C. and immediately diluted with cell culture medium. After centrifugation, the cell pellet is resuspended in medium and then distributed into the assay plates with a density of 5000 cells/25 μL per well. The plates are incubated for one hour at room temperature to reduce edge effects before they are incubated for 24 hours at 37° C./5% CO2. Compounds are prepared by a 8-point serial dilution in DMSO and a final dilution step into assay buffer (HBSS with 20 mM HEPES, 0.1% BSA and 50 mM LiCl, pH 7.4) to ensure a final DMSO concentration of 1% in the assay.
(§2) On the day of the assay, cells in the plate are washed twice with 60 μL assay buffer (20 μL buffer remained in the wells after washing), followed by adding 5 μL per well of compounds diluted in assay buffer. After 15 minutes of incubation at room temperature 5 μL per well of Orexin A peptide (final concentration: 0.5 nM) dissolved in assay buffer is added to the assay plate. The assay plate is incubated for 60 minutes at 37° C. Then 5 μl per well of Anti-IP1-Cryptate Tb solution and 5 μl per well of IP1-d2 dilution are added to all well of the plate and the plate is incubated for a further 60 minutes light protected at room temperature. The emission at 615 nm and 665 nm (Excitation wavelength: 320 nm) are measured using an EnVision reader (PerkinElmer). The ratio between the emission at 665 nm and 615 is calculated by the reader.
(§3) 8-point four parametric non-linear curve fitting and determination of 1050 values and Hill slopes is performed using a regular analysis software e.g. AssayExplorer (Accelrys). In order to establish an agonist concentration independent parameter, Kb values are calculated using the following equation: IC50/((2+(A/EC50)^n)^1/n−1) (with A=concentration agonist, EC50=EC50 agonist, n=Hill slope agonist) (see P. Leff, I. G. Dougall, Trends Pharmacol. Sci. 1993, 14(4), 110-112).

[2] = molecular target: T2, human Orexin 1 receptor (Homo sapiens, UniProt O43613); assay: Assay A: OX1R IP1 (in vitro OX1R potency); format: cell-based; conditions: for Kb: Table 3, read-out: Assay A OX1R Kb (Orexin A concentration); for OX1R selectivity over OX2R (selectivity ratio OX2R Kb/OX1R Kb) compared to Example 91 in WO2016/034882 / OX1R potency compared to Example 91 in WO2016/034882: versus Example 91 in WO2016/034882
T2 construct: stably expressing the full-length human Orexin 1 receptor; expressed in transfected cells; host or cells: CHO-K1 (CHO-K1/hOx1), co-expressing the aequorin photoprotein
T2 sequence (O43613 1-425): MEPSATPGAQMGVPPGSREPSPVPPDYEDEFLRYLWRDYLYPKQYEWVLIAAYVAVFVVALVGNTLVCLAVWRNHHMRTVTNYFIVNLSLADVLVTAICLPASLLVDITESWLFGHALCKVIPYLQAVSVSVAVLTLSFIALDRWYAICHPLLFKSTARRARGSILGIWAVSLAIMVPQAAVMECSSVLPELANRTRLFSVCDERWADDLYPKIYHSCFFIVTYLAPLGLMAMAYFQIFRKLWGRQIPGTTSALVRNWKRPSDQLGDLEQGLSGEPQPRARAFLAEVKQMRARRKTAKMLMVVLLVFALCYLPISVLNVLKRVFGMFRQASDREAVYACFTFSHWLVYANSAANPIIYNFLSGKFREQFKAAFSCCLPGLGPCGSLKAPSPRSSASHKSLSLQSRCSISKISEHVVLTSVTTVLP
Description: Activation of the orexin receptors expressed in cell lines results in an increase in intracellular IP3 concentration. IP1, a downstream metabolite of IP3, accumulates in cells following receptor activation and is stable in the presence of LiCl. Using Homogeneous Time-Resolved Fluorescence technology with Lumi4-Tb cryptate (commercially available from Cisbio Bioassay.) and a suitable fluorescence plate reader. […] This technique is used to characterize pharmacological modification of the orexin receptors.
A. In Vitro Testing of OX1R Potency: OX1R IP1
as §1, with “human Orexin 1” for “human orexin 2”, “The CHO-K1/hOx1” for “The CHO-K1/hOx2”, “C. […]” for “C. The viability of the cells after thawing is >90%.”, “is re-suspended” for “is resuspended”, “of 10000” for “of 5000”, “by an” for “by a”
as §2, with “0.5 nM and/or 50” for “0.5”, “added” for “added to all well of the plate”, “temperature.” for “temperature. The emission at 615 nm and 665 nm (Excitation wavelength: 320 nm) are measured using an EnVision reader (PerkinElmer). The ratio between the emission at 665 nm and 615 is calculated by the reader.”
as §3, with “IC50” for “1050”, “agonist).” for “agonist) (see P. Leff, I. G. Dougall, Trends Pharmacol. Sci. 1993, 14(4), 110-112).”

[3] = molecular target: T3, OX2R (Homo sapiens, UniProt O43614); conditions: cited from earlier work
T3 sequence (O43614 1-444): T1 sequence (O43614 1-444)

| SMILES | Kb [1] | OX2R Kb/OX1R Kb [2] | Kb ([2]; 0.5 nM Orexin A) | OX1R selectivity over OX2R (selectivity ratio OX2R Kb/OX1R Kb) compared to Example 91 in WO2016/034882 ([2]; in words) | Kb ([2]; 50 nM Orexin A) | OX2R pIC50 ([3]; Table 3 of WO2016/034882) | IC50 ([3]; corresponds to pIC50 of Table 3 of WO2016/034882) | OX1R potency compared to Example 91 in WO2016/034882 ([2]; in words) | OX1R selectivity compared to Example 14 in WO2016/034882 ([2]; in words, versus Example 14 in WO2016/034882) |
| --- | --- | --- | --- | --- | --- | --- | --- | --- | --- |
| CCN(C(=O)c1cc(C)ccc1-n1cccn1)[C@@H](C)COc1ncc(C(F)(F)F)cn1 [Example 8] | 502 nM | 228 | 2.2 nM | increase in OX1R selectivity |  |  |  |  |  |
| CCN(C(=O)c1cccc(C)c1-c1nnc(C)o1)[C@@H](C)COc1ncc(C(F)(F)F)cn1 [Example 21] | 540 nM |  | 2 nM | increase in OX1R selectivity | 1.9 nM |  |  |  |  |
| CC[C@@H](CNc1ncc(C(F)(F)F)cn1)N(C)C(=O)c1c(F)cccc1-n1nccn1 [Ex 91 in WO2016/ 034882] |  |  |  |  |  | < 5.1 | > 7950 nM |  |  |
| CCN(C(=O)c1ccc(C)cc1-c1nnc(C)o1)[C@@H](C)COc1ncc(C(F)(F)F)cn1 [Example 19] | 6640 nM | 909 | 7.3 nM | increase in OX1R selectivity |  |  |  |  |  |
| CCN(C(=O)c1cc(F)cc(F)c1-n1nccn1)[C@@H](C)COc1ncc(C(F)(F)F)cn1 [Example 22] | 1460 nM | 406 | 3.6 nM | more selective |  |  |  |  |  |
| CCN(C(=O)c1cccc(C)c1-n1nccn1)[C@@H](C)COc1ncc(C(F)(F)F)cn1 [Example 11] | 160 nM |  | 1.3 nM | increase | 1.4 nM |  |  | increase |  |
| CCN(C(=O)c1cc(OC)ccc1-n1nccn1)[C@@H](C)COc1ncc(C(F)(F)F)cn1 [Example 14] | 253 nM |  | 0.97 nM | increase | 1.21 nM |  |  | increase |  |
| CCN(C(=O)c1cccc(F)c1-n1nccn1)[C@@H](C)COc1ncc(C(F)(F)F)cn1 [Example 1] | 425 nM |  | 1.7 nM | more selective | 2.5 nM |  |  |  |  |
| CCN(C(=O)c1ccccc1-n1nccn1)[C@@H](C)COc1ncc(C(F)(F)F)cn1 [Example 24] | 237 nM |  | 1.8 nM |  | 2.6 nM |  |  |  |  |
| CCN(C(=O)c1cccc(F)c1-c1ncccn1)[C@@H](C)COc1ncc(C(F)(F)F)cn1 [Example 32] | 188 nM |  | 0.61 nM |  | 0.46 nM |  |  |  | increase in OX1R selectivity |
| CCN(C(=O)c1ccc(F)cc1-c1ncccn1)[C@@H](C)COc1ncc(C(F)(F)F)cn1 [Example 25] | 272 nM |  | 0.81 nM |  | 1.4 nM |  |  |  |  |
